Data from publication PMC3984256, “A PCNA-Derived Cell Permeable Peptide Selectively Inhibits Neuroblastoma Cell Growth” (PLoS ONE, 2014).
Where a SMILES comes first, the peptide text is derived from it. [ ]: non-standard residue; d: D form.

Columns and labels:
[1] = tested on: Rad51 foci in SK-N-BE(2)c cells; experiment: Rad51 foci immunofluorescence after γ-irradiation; type: cell-based, human; conditions: 2 h peptide pretreatment, 5 Gy
Description: (§1) To study DNA damage and repair, attached cells were pretreated with the peptides for 2 h and were then ã-irradiated (5 Gy). After irradiation, cells were cultured in the presence of the peptides for the indicated time. For analyzing ãH2A.X foci formation, cells were fixed in a solution of methanol and acetone (70%:30% v/v) for 15 min at −20°C. The slides were air-dried for storage and rehydrated in PBS prior to immunostaining. Cells were stained by a mouse monoclonal antibody specific to ãH2A.X (Millipore, Billerica, MA) followed by an Alexa Fluor 488 conjugated anti-mouse IgG antibody. For analyzing Rad51 foci formation, cells were fixed in PBS buffered 4% paraformaldehyde at room temperature for 15 min. After being washed twice by PBS, cells were permeabilized in PBS containing 0.5% triton for 15 min on ice. The fixed and permeabilized cells were stained with a rabbit polyclonal antibody raised against the human Rad51 (Santa Cruz) followed by an Alexa Fluor 488 conjugated anti-rabbit IgG antibody. Stained cells were visualized and imaged by a confocal microscope.

SK-N-BE(2)c cells = experiment: Cell cycle analysis by PI flow cytometry, SK-N-BE(2)c; type: cell-based, human
Description: Cells were seeded at 1×10^5/ml. Once attached, cells were treated with or without R9-caPep for 48 hours. Cells were fixed in 60% ethanol and stained with propidium iodide (PI). The cellular PI fluorescence intensity was determined by flow cytometry. The flow cytometry data were analyzed by the FlowJo program to model various cell populations.

[2] = tested on: xenograft tumors derived from the SK-N-BE2(c) cells; experiment: SK-N-BE(2)c xenograft tumor model in nude mice; type: in vivo, mouse; conditions: n = 10/group, intratumoral injection 3 times a week, vs PBS or R9-srbPep
Description: All experiments involving live animals were carried out in strict accordance with the recommendations in the Guide for the Care and Use of Laboratory Animals of the National Institutes of Health. The protocol (#11034) was reviewed and approved by the City of Hope Institutional Animal Care and Use Committee. Nude mice 6 weeks of age were purchased from the Jackson Laboratory (Bar Harbor, ME). SK-N-BE(2)c cells were harvested and washed twice in PBS. Cells were suspended in Matrigel (BD Biosciences) at 5×10^7/ml. 0.1 ml of suspended cells was subcutaneously injected into the right flank of each of 30 nude mice. Seven days after tumor inoculation, mice were randomly grouped into three groups with 10 mice in each group. The mice were treated with PBS, R9-srbPep, or R9-caPep 3 times a week by intratumoral injection. Tumor growth was measured weekly as well as at the end of the experiment by a dial caliper. Tumor volumes were estimated based on the length (L) and width (W) of the tumors (V = L×W^2×0.5). At the end of the experiment, tumors were isolated from sacrificed mice and their masses were measured.

[3] = tested on: PCNA and LIGI co-localization in SK-N-AS NB cells; experiment: PCNA/LIGI co-localization, immunofluorescence; type: cell-based, human; conditions: synchronized, 30 µM peptide 6 h after mimosine release
Description: Cells were seeded at 1×10^5/ml onto a chamber slide and were allowed to attach overnight. To analyze the interaction of PCNA with FEN1, LIGI, or Pol ä, we first synchronize cells at the G1/S boundary. The synchronization is achieved by starving cells in medium containing 0.25% FBS for 24 h. Cells were further cultured in the complete medium containing 400 µM of mimosine for 24 h. To release cells into S phase, cells were washed and incubated in mimosine-free medium containing 30 µM R9-caPep or R9-srbPep for 6 h. We pre-determined that the majority of cells were in the S-phase 6 h after mimosine was removed (data not shown). Cells were fixed in ice-cold methanol:acetone (50%:50%) for 10 min or in 4% paraformaldehyde for 20 min at room temperature. Cells were incubated with a goat polyclonal anti-PCNA antibody (Santa Cruz) and a mouse monoclonal anti-FEN1 antibody (Santa Cruz), a mouse anti-POLD3 antibody (Sigma, St. Louis, MO), or a mouse anti-LIGI antibody (Abcam, Cambridge, MA) for 1 h at room temperature. After being washed with PBS, cells were incubated with Alexa Fluor 488 conjugated anti-mouse IgG and Alexa Fluor 555 conjugated anti-goat IgG antibodies (Invitrogen, Grand Island, NY) for 1 h. Cells were mounted in Vectashield with DAPI (Vector Labs, Burlingame, CA) and visualized by a confocal microscope.

ãH2A.X foci = experiment: γH2A.X foci immunofluorescence after γ-irradiation; type: cell-based; conditions: 30 µM peptide, 2 h pretreatment, 5 Gy; five fields; vs R9-srbPep
Description: as §1

## CC[C@H](C)[C@H](NC(=O)CNC(=O)[C@H](CC(C)C)NC(=O)[C@H](CS)NC(=O)[C@H](CS)NC(=O)[C@@H](CCCNC(=N)N)NC(=O)[C@@H](CCCNC(=N)N)NC(=O)[C@@H](CCCNC(=N)N)NC(=O)[C@@H](CCCNC(=N)N)NC(=O)[C@@H](CCCNC(=N)N)NC(=O)[C@@H](CCCNC(=N)N)NC(=O)[C@@H](CCCNC(=N)N)NC(=O)[C@@H](CCCNC(=N)N)NC(=O)[C@H](N)CCCNC(=N)N)C(=O)N1CCC[C@H]1C(=O)N[C@@H](CCC(=O)O)C(=O)N[C@@H](CCC(N)=O)C(=O)N[C@@H](CCC(=O)O)C(=O)N[C@@H](Cc1ccc(O)cc1)C(=O)O [R9-caPep] (H-[dR][dR][dR][dR][dR][dR][dR][dR][dR]CCLGIPEQEY-OH; N-terminus and C-terminus assumed)
[1]; 4 h after irradiation
  number of Rad51-positive cells at 4 h: reduced the number of Rad51-positive cells at 4 h after ã-irradiation
[1]; 48 h after irradiation
  Rad51 background staining at 48 h: strong and diffused background staining of Rad51
  Rad51 foci at 48 h: Rad51 foci remain visible
SK-N-BE(2)c cells; NB cells (SK-N-BE(2)c), 48 h, 20 or 40 µM
  cell cycle arrest: caused S-phase arrest in NB cells
SK-N-BE(2)c cells; SK-N-BE(2)c, 40 µM, 48 h
  apoptosis: sub-G1 cell population: rise of a sub-G1 cell population
SK-N-BE(2)c cells; treatment longer than 6 h (Fig. 3c, 48 h)
  relative abundance of cells in S-phase, longer treatment: increased the relative abundance of cells in S-phase
[2]; end of experiment
  tumor growth (tumor mass): significantly and nearly completely inhibited tumor growth
[2]; ** p<0.01
  tumor growth (tumor volume): significantly and nearly completely inhibited tumor growth
[3]
  LIGI co-localization with PCNA foci: largely blocked
ãH2A.X foci
  resolution of ãH2A.X foci: delayed the resolution of ãH2A.X foci induced by ã-irradiation
